Series [1] can be described thus: Antiulcer effects (pylorus-ligated rats). It counts as in vivo, rats (Donryu). Particulars: for Inhibition rate (ulcer): duodenum, 8 h. Here is the method: Donryu rats weighing 200 to 230 g were used. Each group consisted of 6 rats. After fasting for 72 h, the rats were subjected to an abdominal operation under etheral anesthesia. The pylorus was ligated. Immediately thereafter, a given dose of a test sample was placed in the duodenum. Thereafter, neither food nor water was given. After 8 h, the stomach was taken out under etheral anesthesia and immersed in 1% formalin solution for 10 min. The stomach was cut along the greater curvature. The area of ulcer formed in the forestomach was determined by an anatomico-microscopicobservation (magnification: ×10). The rate of control of the ulcer (%) was calculated as compared with a control.

For series [2], the system named is secretion of acid in the stomach. The series is described as follows: Inhibition of the secretion of acid in the stomach (pylorus-ligated rats). The format is in vivo, rats (Donryu male). Particulars: duodenum, 6 h; for Acidity / Gastric juice secreted / Inhibition rate (acidity) / Inhibition rate (amount of acid discharged) / Inhibition rate (gastric juice secreted) / Inhibition rate (pepsin activity) / Pepsin activity / Amount of acid discharged: five rats. Here is the method:
The pylorus was ligated. Immediately thereafter, a test sample was placed in the duodenum and the abdomen was closed. Six hour after the administration of the test sample, the stomach was taken out under […] anesthesia and the gastric juice was taken out. The gastric juice was centrifuged. The quantity, acidity and pepsin activity of the supernatant liquid were determined. […] The amount of the acid discharged per hour was calculated by multiplying the acidity by the quantity of the juice. Pepsin activity was determined by Anson's method [J. gen. […] The results of the tests of TAS are the averages of the group consisting of ten rats.

Series [3] can be described thus: Acute toxicity in rats (LD50). Particulars: rat, in vivo. An excerpt:
(§1) For example, the acute toxicities of a compound of the formula (I) wherein R2 represents --NH2 in mice and rats are as shown in Table 1. The acute toxicities of compounds of the formula (I) wherein R2 represents --NHCH3, --SH or --SCH3 are nearly equal to that shown in Table 1.

Series [4] in a line: Acute toxicity in mice (LD50). Particulars: mouse, in vivo.
From the text: as §1

Where “and” joins values, the source holds several entries; their conditions need not be identical. Identical values can stand only once. Counter-ions that a name gives are not always drawn.

With `CNC(=C[N+](=O)[O-])NCCSCc1ccc(CN(C)C)o1` [ranitidine, reference compound], the “Inhibition rate (ulcer)” value in series [1] (100 mg/kg) is 50%. In series [1] (200 mg/kg), the “Inhibition rate (ulcer)” value is 85%. In series [2] (Table 5, 6.7 mg/kg, ten rats), the “Rate of control of the amount of acid discharged” value was found to be 19.3%, the “Rate of control of the amount of pepsin discharged” value (from here on “Rate … of pepsin discharged”) is 1.5%, the “Rate of inhibition of acidity” value is given as 11.3% and the “Rate of inhibition of the secretion of gastric juice” value turned out to be 7.7%. In addition, in series [2] (Table 5, 20.0 mg/kg, ten rats), the “Rate of control of the amount of acid discharged” value was determined as 54.2%, the “Rate … of pepsin discharged” value is -4.5%, the “Rate of inhibition of acidity” value worked out at 28.2% and the “Rate of inhibition of the secretion of gastric juice” value was found to be 23.1%. In addition, in series [2] (Table 5, 60.0 mg/kg, ten rats), the “Rate of control of the amount of acid discharged” value is recorded as 67.4%, the “Rate … of pepsin discharged” value was -3.0%, the “Rate of inhibition of acidity” value was 50.1% and the “Rate of inhibition of the secretion of gastric juice” value was found to be 34.6%.
With `Nc1nnc(NCCCOc2cccc(CN3CCCCC3)c2)s1` [2-N-{3-[3-(1-piperidinomethyl)phenoxy]propyl}amino-5-amino-1,3,4-thiadiazole], the median lethal dose (LD50) was 91.6 mg/kg in series [3] (intravenous injection); 1410 mg/kg in series [3] (po, peroral); 53.2 mg/kg in series [4] (intravenous injection); 1220 mg/kg in series [4] (po, peroral).
Take `Sc1nnc(NCCCOc2cccc(CN3CCCCC3)c2)s1` [H2 --37, 2-N-{3-[3-(1-piperidinomethyl)phenoxy]propyl}amino-5-mercapto-1,3,4-thiadiazole]: in series [2] (6.7 mg/kg), the Acidity is given as 85.0 meq H^+ /l, the Gastric juice secreted came to 4.6 mL, the “Inhibition rate (acidity)” value is reported as 4.5% and the “Inhibition rate (amount of acid discharged)” value was 22.0%. Moreover, in series [2] (6.7 mg/kg), the “Inhibition rate (gastric juice secreted)” value is 27.0%, the “Inhibition rate (pepsin activity)” value is listed as -7.3% and the Pepsin activity was 5.9 mg/mL. For the same compound, in series [2] (20.0 mg/kg), the Acidity was found to be 81.0 meq H^+ /l, the Gastric juice secreted stood at 5.2 mL, the “Inhibition rate (acidity)” value was found to be 9.0% and the “Inhibition rate (amount of acid discharged)” value is recorded as 21.0%. Also, in series [2] (20.0 mg/kg), the “Inhibition rate (gastric juice secreted)” value stood at 18.0%, the “Inhibition rate (pepsin activity)” value was -7.3% and the Pepsin activity is 5.9 mg/mL. In addition, in series [2] (60.0 mg/kg), the Acidity is on record as 67.0 meq H^+ /l, the Gastric juice secreted is 3.6 mL, the “Inhibition rate (acidity)” value worked out at 24.0% and the “Inhibition rate (amount of acid discharged)” value was 57.0%. Besides, in series [2] (60.0 mg/kg), the “Inhibition rate (gastric juice secreted)” value is reported as 43.0%, the “Inhibition rate (pepsin activity)” value worked out at 1.8% and the Pepsin activity is 5.4 mg/mL. Moreover, the “Amount of acid discharged” value in series [2] (Table 4, 6.7 mg/kg) is given as 67.0 μEq/h. Besides, in series [2] (Table 4, 20.0 mg/kg), the “Amount of acid discharged” value is 68.0 μEq/h. For the same compound, the “Amount of acid discharged” value in series [2] (Table 4, 60.0 mg/kg) is 37.0 μEq/h.
In the case of `CNc1nnc(NCCCOc2cccc(CN3CCCCC3)c2)s1` [H2 --33, 2-N-{3-[3-(1-piperidinomethyl)phenoxy]-propyl}amino-5-methylamino-1,3,4-thiadiazole], in series [2] (6.7 mg/kg), the Acidity is on record as 70.0 meq H^+ /l, the Gastric juice secreted came out at 4.8 mL, the “Inhibition rate (acidity)” value was 14.0% and the “Inhibition rate (amount of acid discharged)” value was 35.0%. For the same compound, in series [2] (6.7 mg/kg), the “Inhibition rate (gastric juice secreted)” value worked out at 17.0%, the “Inhibition rate (pepsin activity)” value is reported as -3.2% and the Pepsin activity worked out at 6.4 mg/mL. Moreover, in series [2] (20.0 mg/kg), the Acidity worked out at 52.0 meq H^+ /l, the Gastric juice secreted came to 2.5 mL, the “Inhibition rate (acidity)” value was found to be 36.0% and the “Inhibition rate (amount of acid discharged)” value was 70.0%. In series [2] (20.0 mg/kg), the “Inhibition rate (gastric juice secreted)” value is reported as 57.0%, the “Inhibition rate (pepsin activity)” value was 0% and the Pepsin activity stood at 6.2 mg/mL. For the same compound, in series [2] (60.0 mg/kg), the Acidity was determined as 24.0 meq H^+ /l, the Gastric juice secreted was 2.9 mL, the “Inhibition rate (acidity)” value is given as 70.0% and the “Inhibition rate (amount of acid discharged)” value came to 88.0%. Further, in series [2] (60.0 mg/kg), the “Inhibition rate (gastric juice secreted)” value was 50.0%, the “Inhibition rate (pepsin activity)” value came to 21.0% and the Pepsin activity was found to be 4.9 mg/mL. The “Amount of acid discharged” value in series [2] (Table 3, 6.7 mg/kg) stood at 54.0 μEq/H. In series [2] (Table 3, 20.0 mg/kg), the “Amount of acid discharged” value is recorded as 25.0 μEq/H. The “Amount of acid discharged” value in series [2] (Table 3, 60.0 mg/kg) came out at 10.0 μEq/H.
`CN/C(=N/CCSCc1nc[nH]c1C)NC#N` [cimetidine, reference compound]: the “Inhibition rate (ulcer)” value is given as 10% in series [1] (100 mg/kg) and 60% in series [1] (200 mg/kg). Besides, the Acidity in series [2] (6.7 mg/kg) was 85.0 meq H^+ /l and 76.0 meq H^+ /l; in series [2] (20.0 mg/kg), 77.0 meq H^+ /l and 79.0 meq H^+ /l; in series [2] (60.0 mg/kg) it was 61.0 meq H^+ /l and 62.0 meq H^+ /l. The Gastric juice secreted was 5.4 mL and 5.0 mL in series [2] (6.7 mg/kg); 4.8 mL and 4.5 mL in series [2] (20.0 mg/kg); 3.7 mL and 4.5 mL in series [2] (60.0 mg/kg). The Pepsin activity in series [2] (6.7 mg/kg) was 7.0 mg/mL and 5.5 mg/mL; in series [2] (20.0 mg/kg) it was 6.2 mg/mL and 5.1 mg/mL; in series [2] (60.0 mg/kg), 6.3 mg/mL. Besides, the “Inhibition rate (acidity)” value in series [2] (20.0 mg/kg) was 5.4% and 11.0%; in series [2] (60.0 mg/kg), 25.0% and 31.0%. Further, the “Inhibition rate (amount of acid discharged)” value was 31.0% and 29.0% in series [2] (20.0 mg/kg); 55.0% and 45.0% in series [2] (60.0 mg/kg). The “Inhibition rate (gastric juice secreted)” value in series [2] (20.0 mg/kg) is 17.0% and 29.0%; in series [2] (60.0 mg/kg), 36.0% and 29.0%. In addition, in series [2] (20.0 mg/kg), the “Inhibition rate (pepsin activity)” value was 0% and 7.3%. Further, the “Amount of acid discharged” value was determined as 79.0 μEq/H in series [2] (Table 3, 6.7 mg/kg); 57.0 μEq/H in series [2] (Table 3, 20.0 mg/kg); 38.0 μEq/H in series [2] (Table 3, 60.0 mg/kg); 67.0 μEq/h in series [2] (Table 4, 6.7 mg/kg); 61.0 μEq/h in series [2] (Table 4, 20.0 mg/kg); 47.0 μEq/h in series [2] (Table 4, 60.0 mg/kg). Moreover, the “Rate of control of the amount of acid discharged” value in series [2] (Table 5, 6.7 mg/kg, ten rats) is 2.5%; in series [2] (Table 5, 20.0 mg/kg, ten rats) it was 25.6%; in series [2] (Table 5, 60.0 mg/kg, ten rats), 51.1%. Also, the “Rate … of pepsin discharged” value is on record as -6.1% in series [2] (Table 5, 6.7 mg/kg, ten rats); 6.1% in series [2] (Table 5, 20.0 mg/kg, ten rats); 4.5% in series [2] (Table 5, 60.0 mg/kg, ten rats). In addition, the “Rate of inhibition of acidity” value in series [2] (Table 5, 6.7 mg/kg, ten rats) is on record as 2.9%; in series [2] (Table 5, 20.0 mg/kg, ten rats), 12.4%; in series [2] (Table 5, 60.0 mg/kg, ten rats) it was 30.9%. Moreover, the “Rate of inhibition of the secretion of gastric juice” value in series [2] (Table 5, 6.7 mg/kg, ten rats) came out at 3.8%; in series [2] (Table 5, 20.0 mg/kg, ten rats) it was 7.7%; in series [2] (Table 5, 60.0 mg/kg, ten rats), 28.8%.
For `Nc1nnc(NCCCOc2cccc(CN3CCCCC3)c2)s1` [TAS, 2-N-{3-[3-(1-piperidinomethyl)phenoxy]propyl}-amino-5-amino-1,3,4-thiadiazole hydrochloride], the “Inhibition rate (ulcer)” value is on record as 60.0% in series [1] (6.3 mg/kg), 90.0% in series [1] (12.5 mg/kg), 95.0% in series [1] (25.0 mg/kg) and 100% in series [1] (50.0 mg/kg). Also, the “antiulcer effects compared with 200 mg/kg of cimetidine or ranitidine” value in series [1] (12.5 to 50 mg/kg) is reported as “far superior”. The “Rate of control of the amount of acid discharged” value in series [2] (Table 5, 6.7 mg/kg, ten rats) was 85.7%; in series [2] (Table 5, 20.0 mg/kg, ten rats) it was 91.4%; in series [2] (Table 5, 60.0 mg/kg, ten rats), 100%; in series [2] (Table 6, 0.7 mg/kg) it was 40.2%; in series [2] (Table 6, 6.7 mg/kg), 81.5%; in series [2] (Table 6, 20.0 mg/kg), 91.5%. Further, the “Rate … of pepsin discharged” value in series [2] (Table 5, 6.7 mg/kg, ten rats) is 13.6%; in series [2] (Table 5, 20.0 mg/kg, ten rats), 25.8%; in series [2] (Table 5, 60.0 mg/kg, ten rats), 86.4%; in series [2] (Table 6, 0.7 mg/kg), -1.3%; in series [2] (Table 6, 6.7 mg/kg) it was 15.2%; in series [2] (Table 6, 20.0 mg/kg), 30.4%. For the same compound, the “Rate of inhibition of acidity” value in series [2] (Table 5, 6.7 mg/kg, ten rats) is on record as 67.4%; in series [2] (Table 5, 20.0 mg/kg, ten rats) it was 74.0%; in series [2] (Table 5, 60.0 mg/kg, ten rats), 100%; in series [2] (Table 6, 0.7 mg/kg), 22.4%; in series [2] (Table 6, 6.7 mg/kg), 65.7%; in series [2] (Table 6, 20.0 mg/kg) it was 75.0%. Also, the “Rate of inhibition of the secretion of gastric juice” value in series [2] (Table 5, 6.7 mg/kg, ten rats) was found to be 57.7%; in series [2] (Table 5, 20.0 mg/kg, ten rats), 65.4%; in series [2] (Table 5, 60.0 mg/kg, ten rats), 82.7%; in series [2] (Table 6, 0.7 mg/kg), 23.51%; in series [2] (Table 6, 6.7 mg/kg), 52.9%; in series [2] (Table 6, 20.0 mg/kg), 66.7%.

By LD50 is commonly meant the dose expected to kill half of the subjects tested. Read a low LD50 as greater toxicity.
